Legend:
Type in all cases: in vivo
[1] = system: johnsongrass (Sorghum halepense); assay: Test B pre-/postemergence plant response
How it was run: (§1)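 Test compounds, formulated in a non-phytotoxic solvent mixture with surfactant, are applied to the soil surface (loam and sand blend) right after seeding, or sprayed over plants at the 1- to 4-leaf stage grown in peat moss/vermiculite medium. After 13 to 15 days under glasshouse conditions, each species is scored visually from 0 (no effect) to 100 (complete control) against controls.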

[2] = system: ragweed (common ragweed, Ambrosia elatior); assay: Test B pre-/postemergence plant response
How it was run: as §1

soybean (Glycine max) = assay: Test B pre-/postemergence plant response
How it was run: as §1

[3] = system: wheat (Triticum aestivum); assay: Test B pre-/postemergence plant response
How it was run: as §1

[4] = system: yellow nutsedge (Cyperus esculentus); assay: Test B pre-/postemergence plant response
How it was run: as §1

kochia (Kochia scoparia) = assay: Test B pre-/postemergence plant response
How it was run: as §1

[5] = system: velvetleaf (Abutilon theophrasti); assay: Test B pre-/postemergence plant response
How it was run: as §1

[6] = system: morningglory (Ipomoea coccinea); assay: Test B pre-/postemergence plant response
How it was run: as §1

[7] = system: giant foxtail (Setaria faberii); assay: Test B pre-/postemergence plant response
How it was run: as §1

wild oat (Avena fatua) = assay: Test B pre-/postemergence plant response
How it was run: as §1

[8] = system: green foxtail (Setaria viridis); assay: Test B pre-/postemergence plant response
How it was run: as §1

[9] = system: downy bromegrass (Bromus tectorum); assay: Test B pre-/postemergence plant response
How it was run: as §1

[10] = system: cocklebur (Xanthium strumarium); assay: Test B pre-/postemergence plant response
How it was run: as §1

[11] = system: blackgrass (Alopecurus myosuroides); assay: Test B pre-/postemergence plant response
How it was run: as §1

[12] = system: bermudagrass (Cynodon dactylon); assay: Test B pre-/postemergence plant response
How it was run: as §1

[13] = system: windgrass (Apera spica-venti); assay: Test B postemergence plant response
How it was run: (§2)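 Plants at the 1- to 4-leaf stage (2 to 18 cm tall), grown in pots of peat moss/vermiculite medium with wetting agent and starter nutrients, received postemergence applications of test chemicals. After 13 to 15 days in a greenhouse, injury was rated visually against untreated controls on a 0 (no effect) to 100 (complete control) scale.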

[14] = system: canarygrass (Phalaris minor); assay: Test B postemergence plant response
How it was run: as §2

[15] = system: chickweed (Stellaria media); assay: Test B postemergence plant response
How it was run: as §2

[16] = 62 g ai/ha, postemergence, 0 is no effect, 100 is complete control, 13 to 15 days
[17] = Postemergence, 250 g ai/ha, scale 0 to 100 (0 no effect, 100 complete control)
[18] = 31 g ai/ha, postemergence, scale 0 to 100, 0 is no effect, 100 is complete control
[19] = Postemergence, 125 g ai/ha, visual rating after 13 to 15 days, scale 0 (no effect) to 100 (complete control)

CCCCCCn1c(-c2ccccc2)ncc(C(=O)C2=C(O)CCCC2=O)c1=O [Compound 94]
Johnsongrass plant response rating (0 to 100 scale) [1, 16]: 15
Plant response rating, Johnsongrass [1, 17]: 45
Plant response rating, Ragweed [2, 18]: 40
Ragweed plant response rating (0 to 100 scale) [2, 16]: 45
Plant response rating, Ragweed [2, 17]: 80
Plant response rating, Soybean (soybean (Glycine max); [18]): 65
Soybean plant response rating (0 to 100 scale) (soybean (Glycine max); [16]): 80
Plant response rating, Soybean (soybean (Glycine max); [17]): 95
Plant response rating, Wheat [3, 18]: 0
Wheat plant response rating (0 to 100 scale) [3, 16]: 0
Plant response rating, Wheat [3, 17]: 5
Plant response rating, Nutsedge, Yellow [4, 18]: 20
Nutsedge, Yellow plant response rating (0 to 100 scale) [4, 16]: 20
Plant response rating, Nutsedge, Yellow [4, 17]: 65
Kochia plant response rating (0 to 100 scale) (kochia (Kochia scoparia); [16]): 55
Plant response rating, Kochia (kochia (Kochia scoparia); [17]): 90
Velvetleaf plant response rating (0 to 100 scale) [5, 16]: 70
Plant response rating, Velvetleaf [5, 17]: 80
Plant response rating, Morningglory [6, 18]: 55
Morningglory plant response rating (0 to 100 scale) [6, 16]: 75
Plant response rating, Morningglory [6, 17]: 100
Plant response rating, Foxtail, Giant [7, 18]: 65
Foxtail, Giant plant response rating (0 to 100 scale) [7, 16]: 75
Plant response rating, Foxtail, Giant [7, 17]: 98
Plant response rating, Oat, Wild (wild oat (Avena fatua); [18]): 0
Oat, Wild plant response rating (0 to 100 scale) (wild oat (Avena fatua); [16]): 5
Plant response rating, Oat, Wild (wild oat (Avena fatua); [17]): 30
Plant response rating, Foxtail, Green [8, 18]: 10
Foxtail, Green plant response rating (0 to 100 scale) [8, 16]: 60
Plant response rating, Foxtail, Green [8, 17]: 80
Plant response rating, Bromegrass, Downy [9, 18]: 0
Bromegrass, Downy plant response rating (0 to 100 scale) [9, 16]: 0
Plant response rating, Bromegrass, Downy [9, 19]: 0
Plant response rating, Bromegrass, Downy [9, 17]: 0
Plant response rating, Cocklebur [10, 18]: 45
Cocklebur plant response rating (0 to 100 scale) [10, 16]: 45
Plant response rating, Cocklebur [10, 19]: 60
Plant response rating, Cocklebur [10, 17]: 90
Plant response rating, Blackgrass [11, 18]: 5
Blackgrass plant response rating (0 to 100 scale) [11, 16]: 10
Plant response rating, Blackgrass [11, 19]: 10
Plant response rating, Blackgrass [11, 17]: 20
Plant response rating, Bermudagrass [12, 18]: 80
Bermudagrass plant response rating (0 to 100 scale) [12, 16]: 80
Plant response rating, Bermudagrass [12, 19]: 98
Plant response rating, Bermudagrass [12, 17]: 98
Plant response rating, Windgrass [13, 18]: 0
Windgrass plant response rating (0 to 100 scale) [13, 16]: 40
Plant response rating, Windgrass [13, 17]: 50
Plant response rating, Canarygrass [14, 18]: 0
Canarygrass plant response rating (0 to 100 scale) [14, 16]: 5
Plant response rating, Canarygrass [14, 19]: 30
Plant response rating, Canarygrass [14, 17]: 35
Plant response rating, Chickweed [15, 18]: 95
Chickweed plant response rating (0 to 100 scale) [15, 16]: 100
Plant response rating, Chickweed [15, 19]: 100
Plant response rating, Chickweed [15, 17]: 100

From patent US8952024B2, “Herbicidal pyrimidone derivatives” (E I du Pont de Nemours and Company, priority 2009, dated 2015)
